Assay [1] deals with postmenopausal women. The following applies: taken together with supplemental hormones, cited from earlier work.
Assay [2] deals with postmenopausal women. To be noted: cited from earlier work.
Assay [3] concerns Adult women of all ages with a score lower than four points for all five domains. The assay can be described thus: Women responding by FSFI: score equal to or higher than four points for all five domains after four weeks (Examples 3, 5, 6). The following applies: daily supply, four weeks treatment. The assay is classed as in vivo, human. An excerpt: Women's sexual function is scored using the established “Female Sexual Function Index” (FSFI) questionnaire [Rosen et al., 2000]. The questionnaire allows to score prevalence of six subcategories (domains) related to female sexual function, with minimum and maximum scores given:
Adult women of all ages were investigated who presented with a score lower than four points out of maximum six points for all five domains.
The investigation depicts the number of responders to the intervention as detailed in the tables after four weeks treatment with a score equal to or higher than four points for all five domains.

As for `CCCc1nn(C)c2c(=O)[nH]c(-c3cc(S(=O)(=O)N4CCN(C)CC4)ccc3OCC)nc12` [sildenafil], the “women who reported improved genital sensations” value in the assay on postmenopausal women [1] (202 postmenopausal women, placebo group 43 percent) was 57%. Moreover, the “group members who reported greater satisfaction with sex” value with postmenopausal women [1] (placebo group 27 percent) was “Forty-one”. In the assay on postmenopausal women [2], the “treatment of SD” value is “not effective”.

On to `N=C(N)NCCC[C@H](N)C(=O)O` [2.8 g L-arginine, L-arginine], for which the “Responders (women responding with improvement / n)” value in assay [3] is 5/26.

Source of the values: US9028890B2, “Composition for improving sexual wellness” (Horphag Research (IP) Pre Ltd., priority 2010, dated 2015).
